Data published in patent US11912650B2, “Bakuchiol derivatives, pharmaceutically acceptable salts thereof, and preparation method and use of the same” (priority 2020, dated 2024).
Values after ≈ are worked out from the molar mass of the structure shown. Like-named read-outs stand apart in the source and are kept apart here.

Experiments:
E. coli ATCC25922 = test: Antibacterial activity assay (broth dilution MIC); format: cell-based; conditions: Escherichia coli, 37° C., 24 h, compounds 38, 44-45, 58-61, 63-64 with 0.05% Tween 80
Protocol: (§1) Antibacterial activity assay. The antibacterial activities of all the compounds were determined according to a broth dilution method specified in Clinical and Laboratory Standards Institute (CLSI) guidelines. Bacterial cells were inoculated on a Mueller-Hinton agar (MHA) plate for overnight culture, and the concentration of the bacterial cells was adjusted to about 1×10^6 colony-forming units (CFU)/mL with phosphate buffered saline (PBS). First, a 1000 μg/mL stock solution (a final concentration of dimethyl sulfoxide (DMSO) was ≤2%) was prepared by dissolving a sample in DMSO/H2O. Then, the stock solution was diluted with Mueller-Hinton Broth (MHB) to an initial concentration of 100 μg/mL, and the sample solution (100 μL) was subjected to two-fold gradient dilution with MHB in a 96-well plate, to obtain 100 μg/mL to 0.78 μg/mL serial dilutions. Then, a bacterial suspension (100 μL) was added to each well of the 96-well plate and mixed with the test sample solution (100 μL). Among them, test systems for compounds 38, 44-45, 58-61 and 63-64 contained 0.05% of Tween 80. Finally, the 96-well plate was incubated at 37° C. for 24 hours. Absorbances at 600 nm at 0 and 24 h were measured. An minimum inhibitory concentration (MIC) value was defined as the lowest concentration where no visible bacterial growth occurred. All experiments were carried out in at least two duplicates, and biological repeatability could be achieved.

S. aureus ATCC29213 = test: Antibacterial activity assay (broth dilution MIC); format: cell-based; conditions: Staphylococcus aureus, 37° C., 24 h, compounds 38, 44-45, 58-61, 63-64 with 0.05% Tween 80
Protocol: as §1

MRSA N315 = test: Antibacterial activity assay (broth dilution MIC); format: cell-based, methicillin-resistant Staphylococcus aureus; conditions: Staphylococcus aureus, 37° C., 24 h, compounds 38, 44-45, 58-61, 63-64 with 0.05% Tween 80
Protocol: as §1

MRSA NCTC10442 = test: Antibacterial activity assay (broth dilution MIC); format: cell-based, methicillin-resistant Staphylococcus aureus; conditions: Staphylococcus aureus, 37° C., 24 h, compounds 38, 44-45, 58-61, 63-64 with 0.05% Tween 80
Protocol: as §1

Gram-positive bacteria = test: Antibacterial activity against Gram-positive bacteria (MIC summary); format: cell-based; conditions: 24 h, read-out: minimum inhibitory concentration (MIC) against Gram-positive bacteria
Protocol: as §1

Gram-negative bacteria = test: Antibacterial activity against Gram-negative bacteria (MIC summary); format: cell-based; conditions: 24 h; summary of tables 1 and 2
Protocol: as §1

SMILES | MIC (E. coli ATCC25922) [mg/L] | MIC (S. aureus ATCC29213) [mg/L] | MIC (MRSA N315) [mg/L] | MIC (MRSA NCTC10442) [mg/L] | MIC (Gram-positive bacteria) [mg/L] | MIC (Gram-positive bacteria; summary of tables 1 and 2) [mg/L] | MIC (Gram-negative bacteria) [mg/L]
C=C[C@@](C)(/C=C/c1ccc(OCCCCN(C)C)cc1)CCC=C(C)C [Compound 5] | > 50 | 1.56 (≈ 4.39 µM) | 1.56 (≈ 4.39 µM) | 3.12 (≈ 8.79 µM) | 0.39 to 3.12 (≈ 1.1 to 8.79 µM) |  | 
C=C[C@@](C)(/C=C/c1ccc(OCCCCN(CC)CC)cc1)CCC=C(C)C [Compound 6] | > 100 | 3.12 (≈ 8.15 µM) | 3.12 (≈ 8.15 µM) | 3.12 (≈ 8.15 µM) | 0.39 to 3.12 (≈ 1.02 to 8.15 µM) |  | 
C=C[C@@](C)(/C=C/c1ccc(OCCCN(C)C)cc1)CCC=C(C)C [Compound 8] | > 100 | 6.25 (≈ 18.3 µM) | 6.25 (≈ 18.3 µM) | 6.25 (≈ 18.3 µM) |  |  | 
C=C[C@@](C)(/C=C/c1ccc(OCCCN(CC)CC)cc1)CCC=C(C)C [Compound 9] | > 100 | 3.12 (≈ 8.46 µM) | 3.12 (≈ 8.46 µM) | 3.12 (≈ 8.46 µM) | 0.39 to 3.12 (≈ 1.06 to 8.46 µM) |  | 
C=C[C@@](C)(/C=C/c1ccc(OCCCCCCCCN(CC)CC)cc1)CCC=C(C)C [Compound 11] | > 100 | 3.12 (≈ 7.11 µM) | 1.56 (≈ 3.55 µM) | 1.56 (≈ 3.55 µM) |  | 0.39 to 3.12 (≈ 0.887 to 7.11 µM) | 
C=C[C@@](C)(/C=C/c1ccc(OCCCCCCCCCCN(CC)CC)cc1)CCC=C(C)C [Compound 12] | > 100 | 12.5 (≈ 26.7 µM) | 3.12 (≈ 6.68 µM) | 3.12 (≈ 6.68 µM) |  | 0.39 to 3.12 (≈ 0.834 to 6.68 µM) | 
C=C[C@@](C)(/C=C/c1ccc(OCCCCN)cc1)CCC=C(C)C [Compound 13] | 12.5 (≈ 38.2 µM) | 1.56 (≈ 4.76 µM) | 0.78 (≈ 2.38 µM) | 1.56 (≈ 4.76 µM) |  | 0.39 to 3.12 (≈ 1.19 to 9.54 µM) | 
C=C[C@@](C)(/C=C/c1ccc(OCCCCNCC)cc1)CCC=C(C)C [Compound 14] | 12.5 (≈ 35.2 µM) | 1.56 (≈ 4.39 µM) | 0.78 (≈ 2.19 µM) | 1.56 (≈ 4.39 µM) |  | 0.39 to 3.12 (≈ 1.1 to 8.79 µM) | 
C=C[C@@](C)(/C=C/c1ccc(OCCCCNCCCC)cc1)CCC=C(C)C [Compound 15] | 12.5 (≈ 32.6 µM) | 1.56 (≈ 4.07 µM) | 1.56 (≈ 4.07 µM) | 1.56 (≈ 4.07 µM) |  | 0.39 to 3.12 (≈ 1.02 to 8.15 µM) | 
C=C[C@@](C)(/C=C/c1ccc(OCCCCNCCCCCC)cc1)CCC=C(C)C [Compound 16] | 100 (≈ 243 µM) | 1.56 (≈ 3.79 µM) | 0.78 (≈ 1.89 µM) | 1.56 (≈ 3.79 µM) |  | 0.39 to 3.12 (≈ 0.947 to 7.59 µM) | 
C=C[C@@](C)(/C=C/c1ccc(OCCCCNCCCCCCCC)cc1)CCC=C(C)C [Compound 17] | > 100 | 6.25 (≈ 14.2 µM) | 1.56 (≈ 3.55 µM) | 3.12 (≈ 7.11 µM) |  |  | 
C=C[C@@](C)(/C=C/c1ccc(OCCCCNCCCCCCCCCC)cc1)CCC=C(C)C [Compound 18] | > 100 | 50 (≈ 107 µM) | 12.5 (≈ 26.7 µM) | 50 (≈ 107 µM) |  |  | 
C=C[C@@](C)(/C=C/c1ccc(OCCCCN2CCCC2)cc1)CCC=C(C)C [Compound 20] | > 100 | 1.56 (≈ 4.09 µM) | 1.56 (≈ 4.09 µM) | 1.56 (≈ 4.09 µM) |  |  | 
C=C[C@@](C)(/C=C/c1ccc(OCCCCN2CCN(C)CC2)cc1)CCC=C(C)C [Compound 21] | > 100 | 1.56 (≈ 3.8 µM) | 3.12 (≈ 7.61 µM) | 3.12 (≈ 7.61 µM) |  |  | 
C=C[C@@](C)(/C=C/c1ccc(OCCCCN(Cc2ccccn2)Cc2ccccn2)cc1)CCC=C(C)C [Compound 22] | > 100 | 3.12 (≈ 6.13 µM) | 1.56 (≈ 3.06 µM) | 1.56 (≈ 3.06 µM) |  |  | 
C=C[C@@](C)(/C=C/c1ccc(OCCCCN2CCN(CCCN(C)C)CC2)cc1)CCC=C(C)C [Compound 23] | 3.12 (≈ 6.49 µM) | 1.56 (≈ 3.24 µM) | 0.78 (≈ 1.62 µM) | 3.12 (≈ 6.49 µM) |  | 0.39 to 3.12 (≈ 0.81 to 6.49 µM) | 1.56 to 3.12 (≈ 3.24 to 6.49 µM)
C=C[C@@](C)(/C=C/c1ccc(OCCCCN(C)CCCNC)cc1)CCC=C(C)C [Compound 24] | 1.56 (≈ 3.78 µM) | 1.56 (≈ 3.78 µM) | 0.78 (≈ 1.89 µM) | 1.56 (≈ 3.78 µM) |  | 0.39 to 3.12 (≈ 0.945 to 7.57 µM) | 1.56 to 3.12 (≈ 3.78 to 7.57 µM)
C=C[C@@](C)(/C=C/c1ccc(OCCCCNCCSC)cc1)CCC=C(C)C [Compound 25] | 50 (≈ 124 µM) | 0.78 (≈ 1.94 µM) | 0.78 (≈ 1.94 µM) | 1.56 (≈ 3.88 µM) |  | 0.39 to 3.12 (≈ 0.971 to 7.78 µM) | 
